{"source": "patent US20200222474A1", "about": "“COMPOSITIONS AND METHODS FOR INCREASING PHYTOCHEMICAL BIOAVAILABLITY AND BIOACTIVITY” (North Carolina State University, priority 2017, published 2020)", "test_system": "L. acidophilus NCFM", "test": "RNA-seq transcriptional analysis of L. acidophilus NCFM growing on plant glycosides", "format": "cell-based, Lactobacillus acidophilus", "key": {"[1]": {"conditions": "LBA0329 Putative cell division protein, COG D"}, "[2]": {"conditions": "LBA0466 Hypothetical protein, COG C"}, "[3]": {"conditions": "LBA0500 MSM operon repressor, COG K"}, "[4]": {"conditions": "LBA0545 Hypothetical protein, COG L"}, "[5]": {"conditions": "LBA0547 Putative site-specific recombinase, COG L"}, "[6]": {"conditions": "LBA0573 Putative transcriptional regulator, COG K"}, "[7]": {"conditions": "LBA0607 Putative transcriptional regulator, COG K"}, "[8]": {"conditions": "LBA0672 Putative phosphate starvation inducible protein stress related, COG J"}, "[9]": {"conditions": "LBA0753 Multi-drug-type permease, COG GEPR"}, "[10]": {"conditions": "LBA0886 Sugar kinase-putative transcriptional regulator, COG KG"}, "[11]": {"conditions": "LBA0887 Hypothetical protein, COG C"}, "[12]": {"conditions": "LBA0897 Putative Cro-like protein, COG K"}, "[13]": {"conditions": "LBA0910 L-lactate dehydrogenase, COG C"}, "[14]": {"conditions": "LBA1021 Putative transcriptional regulator, COG K"}, "[15]": {"conditions": "LBA1220 Pyridine mercuric reductase, COG C"}, "[16]": {"conditions": "LBA1392 Mucus binding protein precursor Mub, COG J"}, "[17]": {"conditions": "LBA1411 Fumarate reductase flavoprotein subunit, COG CS"}, "[18]": {"conditions": "LBA1436 Glycerol uptake facilitator protein, COG G"}, "[19]": {"conditions": "LBA1457 Galactose-1-epimerase, COG G"}, "[20]": {"conditions": "LBA1458 Galactose-1-phosphate uridylyltransferase, COG G"}, "[21]": {"conditions": "LBA1462 Beta-galactosidase, COG G"}, "[22]": {"conditions": "LBA1463 Lactose permease, COG G"}, "[23]": {"conditions": "LBA1465 Transcription repressor of beta-galactosidasegene, COG K"}, "[24]": {"conditions": "LBA1467 Beta-galactosidase large subunit (lactase), COG G"}, "[25]": {"conditions": "LBA1468 Beta-galactosidase small subunit, COG G"}}}
{"smiles": "N#C[C@H](O[C@@H]1O[C@H](CO[C@@H]2O[C@H](CO)[C@@H](O)[C@H](O)[C@H]2O)[C@@H](O)[C@H](O)[C@H]1O)c1ccccc1", "note": "[Amygdalin]", "values": [{"measurement": "Log2 differential normalized TPM ratio compared to glucose", "setting": "LBA0016 Fructokinase, COG KG", "result": 2.4}, {"measurement": "Log2 differential normalized TPM ratio compared to lactose", "setting": "LBA0016 Fructokinase, COG KG", "result": 1.2}, {"measurement": "Transcripts per million (rpm)", "setting": "LBA0016 Fructokinase, COG KG", "result": 387.4, "unit": "rpm"}, {"measurement": "Log2 differential normalized TPM ratio compared to glucose", "setting": "[1]", "result": "−0.1"}, {"measurement": "Log2 differential normalized TPM ratio compared to lactose", "setting": "[1]", "result": "−0.5"}, {"measurement": "Transcripts per million (rpm)", "setting": "[1]", "result": 12.3, "unit": "rpm"}, {"measurement": "Log2 differential normalized TPM ratio compared to glucose", "setting": "[2]", "result": 5.2}, {"measurement": "Log2 differential normalized TPM ratio compared to lactose", "setting": "[2]", "result": 3.7}, {"measurement": "Transcripts per million (rpm)", "setting": "[2]", "result": 2769.5, "unit": "rpm"}, {"measurement": "Log2 differential normalized TPM ratio compared to glucose", "setting": "[3]", "result": 2}, {"measurement": "Log2 differential normalized TPM ratio compared to lactose", "setting": "[3]", "result": 0.4}, {"measurement": "Transcripts per million (rpm)", "setting": "[3]", "result": 169.5, "unit": "rpm"}, {"measurement": "Log2 differential normalized TPM ratio compared to glucose", "setting": "[4]", "result": 2}, {"measurement": "Log2 differential normalized TPM ratio compared to lactose", "setting": "[4]", "result": 0}, {"measurement": "Transcripts per million (rpm)", "setting": "[4]", "result": 244.7, "unit": "rpm"}, {"measurement": "Log2 differential normalized TPM ratio compared to glucose", "setting": "[5]", "result": 1.5}, {"measurement": "Log2 differential normalized TPM ratio compared to lactose", "setting": "[5]", "result": "−0.3"}, {"measurement": "Transcripts per million (rpm)", "setting": "[5]", "result": 24.9, "unit": "rpm"}, {"measurement": "Log2 differential normalized TPM ratio compared to glucose", "setting": "[6]", "result": "−1.5"}, {"measurement": "Log2 differential normalized TPM ratio compared to lactose", "setting": "[6]", "result": "−1.6"}, {"measurement": "Transcripts per million (rpm)", "setting": "[6]", "result": 26.5, "unit": "rpm"}, {"measurement": "Log2 differential normalized TPM ratio compared to glucose", "setting": "[7]", "result": 2.7}, {"measurement": "Log2 differential normalized TPM ratio compared to lactose", "setting": "[7]", "result": 2.2}, {"measurement": "Transcripts per million (rpm)", "setting": "[7]", "result": 252.9, "unit": "rpm"}, {"measurement": "Log2 differential normalized TPM ratio compared to glucose", "setting": "[8]", "result": 2.7}, {"measurement": "Log2 differential normalized TPM ratio compared to lactose", "setting": "[8]", "result": 1.9}, {"measurement": "Transcripts per million (rpm)", "setting": "[8]", "result": 8689.6, "unit": "rpm"}, {"measurement": "Log2 differential normalized TPM ratio compared to glucose", "setting": "[9]", "result": "−0.6"}, {"measurement": "Log2 differential normalized TPM ratio compared to lactose", "setting": "[9]", "result": 0.1}, {"measurement": "Transcripts per million (rpm)", "setting": "[9]", "result": 26.1, "unit": "rpm"}, {"measurement": "Log2 differential normalized TPM ratio compared to glucose", "setting": "[10]", "result": 2.2}, {"measurement": "Log2 differential normalized TPM ratio compared to lactose", "setting": "[10]", "result": 2}, {"measurement": "Transcripts per million (rpm)", "setting": "[10]", "result": 25.1, "unit": "rpm"}, {"measurement": "Log2 differential normalized TPM ratio compared to glucose", "setting": "[11]", "result": 2.4}, {"measurement": "Log2 differential normalized TPM ratio compared to lactose", "setting": "[11]", "result": 1.2}, {"measurement": "Transcripts per million (rpm)", "setting": "[11]", "result": 247, "unit": "rpm"}, {"measurement": "Log2 differential normalized TPM ratio compared to glucose", "setting": "[12]", "result": "−2.3"}, {"measurement": "Log2 differential normalized TPM ratio compared to lactose", "setting": "[12]", "result": 0.2}, {"measurement": "Transcripts per million (rpm)", "setting": "[12]", "result": 0.4, "unit": "rpm"}, {"measurement": "Log2 differential normalized TPM ratio compared to glucose", "setting": "[13]", "result": 3.9}, {"measurement": "Log2 differential normalized TPM ratio compared to lactose", "setting": "[13]", "result": 2.9}, {"measurement": "Transcripts per million (rpm)", "setting": "[13]", "result": 1594.3, "unit": "rpm"}, {"measurement": "Log2 differential normalized TPM ratio compared to glucose", "setting": "[14]", "result": "−1.2"}, {"measurement": "Log2 differential normalized TPM ratio compared to lactose", "setting": "[14]", "result": "−1.5"}, {"measurement": "Transcripts per million (rpm)", "setting": "[14]", "result": 52.4, "unit": "rpm"}, {"measurement": "Log2 differential normalized TPM ratio compared to glucose", "setting": "[15]", "result": 1.2}, {"measurement": "Log2 differential normalized TPM ratio compared to lactose", "setting": "[15]", "result": 0.2}, {"measurement": "Transcripts per million (rpm)", "setting": "[15]", "result": 377.5, "unit": "rpm"}, {"measurement": "Log2 differential normalized TPM ratio compared to glucose", "setting": "[16]", "result": 0.8}, {"measurement": "Log2 differential normalized TPM ratio compared to lactose", "setting": "[16]", "result": 1.1}, {"measurement": "Transcripts per million (rpm)", "setting": "[16]", "result": 148.6, "unit": "rpm"}, {"measurement": "Log2 differential normalized TPM ratio compared to glucose", "setting": "[17]", "result": 4}, {"measurement": "Log2 differential normalized TPM ratio compared to lactose", "setting": "[17]", "result": 2.9}, {"measurement": "Transcripts per million (rpm)", "setting": "[17]", "result": 28.7, "unit": "rpm"}, {"measurement": "Log2 differential normalized TPM ratio compared to glucose", "setting": "[18]", "result": 7.2}, {"measurement": "Log2 differential normalized TPM ratio compared to lactose", "setting": "[18]", "result": 3.5}, {"measurement": "Transcripts per million (rpm)", "setting": "[18]", "result": 328.8, "unit": "rpm"}, {"measurement": "Log2 differential normalized TPM ratio compared to glucose", "setting": "[19]", "result": 2.6}, {"measurement": "Log2 differential normalized TPM ratio compared to lactose", "setting": "[19]", "result": "−3"}, {"measurement": "Transcripts per million (rpm)", "setting": "[19]", "result": 74.9, "unit": "rpm"}, {"measurement": "Log2 differential normalized TPM ratio compared to glucose", "setting": "[20]", "result": 2.8}, {"measurement": "Log2 differential normalized TPM ratio compared to lactose", "setting": "[20]", "result": "−2.9"}, {"measurement": "Transcripts per million (rpm)", "setting": "[20]", "result": 74, "unit": "rpm"}, {"measurement": "Log2 differential normalized TPM ratio compared to glucose", "setting": "LBA1459 Galactokinase, COG G", "result": 1.8}, {"measurement": "Log2 differential normalized TPM ratio compared to lactose", "setting": "LBA1459 Galactokinase, COG G", "result": "−2.8"}, {"measurement": "Transcripts per million (rpm)", "setting": "LBA1459 Galactokinase, COG G", "result": 70.3, "unit": "rpm"}, {"measurement": "Log2 differential normalized TPM ratio compared to glucose", "setting": "[21]", "result": "−0.5"}, {"measurement": "Log2 differential normalized TPM ratio compared to lactose", "setting": "[21]", "result": "−6.5"}, {"measurement": "Transcripts per million (rpm)", "setting": "[21]", "result": 10.2, "unit": "rpm"}, {"measurement": "Log2 differential normalized TPM ratio compared to glucose", "setting": "[22]", "result": 0.2}, {"measurement": "Log2 differential normalized TPM ratio compared to lactose", "setting": "[22]", "result": "−4.5"}, {"measurement": "Transcripts per million (rpm)", "setting": "[22]", "result": 50.7, "unit": "rpm"}, {"measurement": "Log2 differential normalized TPM ratio compared to glucose", "setting": "LBA1464 Transposase, COG L", "result": "−0.1"}, {"measurement": "Log2 differential normalized TPM ratio compared to lactose", "setting": "LBA1464 Transposase, COG L", "result": "−2.5"}, {"measurement": "Transcripts per million (rpm)", "setting": "LBA1464 Transposase, COG L", "result": 133.1, "unit": "rpm"}, {"measurement": "Log2 differential normalized TPM ratio compared to glucose", "setting": "[23]", "result": "−0.1"}, {"measurement": "Log2 differential normalized TPM ratio compared to lactose", "setting": "[23]", "result": "−3.2"}, {"measurement": "Transcripts per million (rpm)", "setting": "[23]", "result": 43.7, "unit": "rpm"}, {"measurement": "Log2 differential normalized TPM ratio compared to glucose", "setting": "[24]", "result": 3.3}, {"measurement": "Log2 differential normalized TPM ratio compared to lactose", "setting": "[24]", "result": "−5.5"}, {"measurement": "Transcripts per million (rpm)", "setting": "[24]", "result": 42.2, "unit": "rpm"}, {"measurement": "Log2 differential normalized TPM ratio compared to glucose", "setting": "[25]", "result": 1.8}, {"measurement": "Log2 differential normalized TPM ratio compared to lactose", "setting": "[25]", "result": "−4.6"}]}
